31 molecules from ChEMBL document CHEMBL1255176, “Novel dihydropyrimidines as a potential new class of antitubercular agents” (2010) can be followed below.

Converted amounts (≈) assume the structure as drawn.

Format in all cases: functional
The nature of experiment [1]: Selectivity index, ratio of IC50 for african green monkey Vero cells to MIC for Mycobacterium tuberculosis H37Rv.
In experiment [2] the test system is Mycobacterium tuberculosis. As to the kind of experiment: Antitubercular activity against Mycobacterium tuberculosis H37Rv at 6.25 ug/ml by microplate alamar blue assay. On the technique in general: Resazurin is reduced to fluorescent resorufin, in cell work by metabolically active cells.
The test system of experiment [3] is Mycobacterium tuberculosis. As to the kind of experiment: Antitubercular activity against Mycobacterium tuberculosis H37Rv by twofold dilution method.

In general, inhibition refers to the drop in the measured response relative to a control, in per cent. As a reminder, the MIC is the smallest concentration in the dilution series that meets the test's criterion for growth inhibition. Regarding `COC(=O)C1=C(C)NC(=S)NC1c1cn(-c2ccccc2)nc1-c1ccc([N+](=O)[O-])cc1` (centres undefined), the “Selectivity Index” value in experiment [1] was 3. The molecule also displayed an inhibition at 6.25 µg/mL in experiment [2] of 91%. In experiment [3], this molecule gave a minimal inhibitory concentration (MIC) of 3.13 µg/mL (≈ 6.96 µM).

In turn, `COC(=O)C1=C(C)NC(=S)NC1c1cn(-c2ccccc2)nc1-c1ccc(F)cc1` (centres undefined) gave an inhibition at 6.25 µg/mL in experiment [2] of 73%.

`CCOC(=O)C1=C(C)NC(SC)NC1c1cn(-c2ccccc2)nc1-c1ccc(Br)cc1` (centres undefined) showed an inhibition at 6.25 µg/mL in experiment [2] of 13%.

As for `NNC(=O)c1ccncc1` [ISONIAZID], 0.03 µg/mL (≈ 0.219 µM) was the least that counted as inhibitory in experiment [3] (MIC).

Regarding `COC(=O)C1=C(C)NC(=O)NC1c1cn(-c2ccccc2)nc1-c1ccc(C)cc1` (centres undefined), the “Selectivity Index” value in experiment [1] was >6.4. The molecule further showed an inhibition at 6.25 µg/mL in experiment [2] of 98%. In experiment [3], the MIC amounted to 1.56 µg/mL (≈ 3.88 µM).

Take `COC(=O)C1=C(C)NC(=S)NC1c1cn(-c2ccccc2)nc1-c1ccc(C)cc1` (centres undefined): the inhibition at 6.25 µg/mL in experiment [2] is 46%.

In experiment [2], `CCOC(=O)C1=C(C)NC(=O)NC1c1cn(-c2ccccc2)nc1-c1ccc(C)cc1` (centres undefined) registered an inhibition at 6.25 µg/mL of 68%.

Consider `COC(=O)C1=C(C)NC(=O)NC1c1cn(-c2ccccc2)nc1-c1ccc(Br)cc1` (centres undefined), for which the “Selectivity Index” value in experiment [1] is listed as >1.6. Also, 6.25 µg/mL produced 90% inhibition in experiment [2]. Further, in experiment [3], the MIC came to 6.25 µg/mL (≈ 13.4 µM).

In experiment [2], `CCOC(=O)C1=C(C)NC(=S)NC1c1cn(-c2ccccc2)nc1-c1ccc(Br)cc1` (centres undefined) yielded an inhibition at 6.25 µg/mL of 87%.

`COC(=O)C1=C(C)NC(=S)NC1c1cn(-c2ccccc2)nc1-c1ccc(Cl)cc1` (centres undefined) showed an inhibition at 6.25 µg/mL in experiment [2] of 68%.

With `CCOC(=O)C1=C(C)NC(SC)NC1c1cn(-c2ccccc2)nc1-c1ccc([N+](=O)[O-])cc1` (centres undefined), in experiment [2], 6.25 µg/mL produced 37% inhibition.

Turning to `CCOC(=O)C1=C(C)NC(=S)NC1c1cn(-c2ccccc2)nc1-c1ccc([N+](=O)[O-])cc1` (centres undefined), in experiment [1], the “Selectivity Index” value is on record as >3.2. In experiment [2], this molecule showed an inhibition at 6.25 µg/mL of 92%. The same molecule came in with an MIC in experiment [3] of 3.13 µg/mL (≈ 6.75 µM).

`COC(=O)C1=C(C)NC(=O)NC1c1cn(-c2ccccc2)nc1-c1ccc([N+](=O)[O-])cc1` (centres undefined) yielded an inhibition at 6.25 µg/mL in experiment [2] of 39%.

As for `CCOC(=O)C1=C(C)NC(SC)NC1c1cn(-c2ccccc2)nc1-c1ccc(F)cc1` (centres undefined), the inhibition at 6.25 µg/mL in experiment [2] is 8%.

Molecule `CCOC(=O)C1=C(C)NC(=N)NC1c1cn(-c2ccccc2)nc1-c1ccc([N+](=O)[O-])cc1` (centres undefined) showed an inhibition at 6.25 µg/mL in experiment [2] of 58%.

For the molecule `CCOC(=O)C1=C(C)NC(=S)NC1c1cn(-c2ccccc2)nc1-c1ccc(C)cc1` (centres undefined), the “Selectivity Index” value in experiment [1] is reported as 5.7. 6.25 µg/mL produced 96% inhibition in experiment [2]. The MIC in experiment [3] stood at 1.56 µg/mL (≈ 3.61 µM).

For `CCOC(=O)C1=C(C)NC(=O)NC1c1cn(-c2ccccc2)nc1-c1ccc([N+](=O)[O-])cc1` (centres undefined), the “Selectivity Index” value in experiment [1] was >500. In experiment [2], this molecule came in with an inhibition at 6.25 µg/mL of 100%. The molecule also displayed an MIC in experiment [3] of 0.02 µg/mL (≈ 0.0447 µM).

The molecule `CCOC(=O)C1=C(C)NC(=N)NC1c1cn(-c2ccccc2)nc1-c1ccc(Br)cc1` (centres undefined) gave an inhibition at 6.25 µg/mL in experiment [2] of 51%.

In experiment [2], `CCOC(=O)C1=C(C)NC(=S)NC1c1cn(-c2ccccc2)nc1-c1ccc(F)cc1` (centres undefined) showed an inhibition at 6.25 µg/mL of 30%.

In turn, `COC(=O)C1=C(C)NC(=O)NC1c1cn(-c2ccccc2)nc1-c1ccc(F)cc1` (centres undefined) gave an inhibition at 6.25 µg/mL in experiment [2] of 62%.

`COC(=O)C1=C(C)NC(=O)NC1c1cn(-c2ccccc2)nc1-c1ccc(Cl)cc1` (centres undefined) returned an inhibition at 6.25 µg/mL in experiment [2] of 75%.

As to `CCOC(=O)C1=C(C)NC(=N)NC1c1cn(-c2ccccc2)nc1-c1ccc(F)cc1` (centres undefined), the inhibition at 6.25 µg/mL in experiment [2] stood at 18%.

For `CCOC(=O)C1=C(C)NC(=O)NC1c1cn(-c2ccccc2)nc1-c1ccc(F)cc1` (centres undefined), the “Selectivity Index” value in experiment [1] is listed as >500. The molecule further displayed an inhibition at 6.25 µg/mL in experiment [2] of 100%. Moreover, the MIC in experiment [3] worked out at 0.02 µg/mL (≈ 0.0476 µM).

With `CCOC(=O)C1=C(C)NC(SC)NC1c1cn(-c2ccccc2)nc1-c1ccc(C)cc1` (centres undefined), the “Selectivity Index” value in experiment [1] is 4.7. This molecule yielded an inhibition at 6.25 µg/mL in experiment [2] of 97%. The molecule also came in with an MIC in experiment [3] of 1.56 µg/mL (≈ 3.48 µM).

The molecule `COC(=O)C1=C(C)NC(=S)NC1c1cn(-c2ccccc2)nc1-c1ccc(Br)cc1` (centres undefined) returned an inhibition at 6.25 µg/mL in experiment [2] of 43%.

Molecule `CCOC(=O)C1=C(C)NC(=O)NC1c1cn(-c2ccccc2)nc1-c1ccc(Br)cc1` (centres undefined) yielded an inhibition at 6.25 µg/mL in experiment [2] of 33%.

As for `CCOC(=O)C1=C(C)NC(=N)NC1c1cn(-c2ccccc2)nc1-c1ccc(Cl)cc1` (centres undefined), the “Selectivity Index” value in experiment [1] was >3.2. The molecule also had an inhibition at 6.25 µg/mL in experiment [2] of 94%. The MIC in experiment [3] came to 3.13 µg/mL (≈ 7.18 µM).

Consider `CCOC(=O)C1=C(C)NC(=O)NC1c1cn(-c2ccccc2)nc1-c1ccc(Cl)cc1` (centres undefined), for which at 6.25 µg/mL the inhibition in experiment [2] was 49%.

In turn, `CCOC(=O)C1=C(C)NC(=N)NC1c1cn(-c2ccccc2)nc1-c1ccc(C)cc1` (centres undefined) displayed an inhibition at 6.25 µg/mL in experiment [2] of 78%.

Take `CCOC(=O)C1=C(C)NC(=S)NC1c1cn(-c2ccccc2)nc1-c1ccc(Cl)cc1` (centres undefined): at 6.25 µg/mL the inhibition in experiment [2] was 75%.

For the molecule `CCOC(=O)C1=C(C)NC(SC)NC1c1cn(-c2ccccc2)nc1-c1ccc(Cl)cc1` (centres undefined), in experiment [2], testing at 6.25 µg/mL gave an inhibition of 13%.
